In the supplement of paper PMC10307832:

Tests used:
Assay in all cases: relative viability (nuclei count vs DMSO), 5 days (fraction); higher = more cells survive
ChaGo-K-1 = test system: ChaGo-K-1
How it was run: (§1)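 After 5 days of treatment, lung cancer cells in 1536-well plates were fixed and stained in a single step (final 0.05% Triton X-100, 1% formaldehyde, 1 ug/ml Hoechst) and their nuclei counted on 4× images. Treatment had been applied by pin tool the day after seeding as one drug alone or as a fixed anchor-drug dose with five library-drug doses (not always all listed) in √10 steps. Relative viability is the nuclei count of treated wells divided by that of vehicle wells, and values are medians of duplicate plates.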

EKVX = test system: EKVX
How it was run: as §1

EMC-BAC-2 = test system: EMC-BAC-2
How it was run: as §1

EPLC-272H = test system: EPLC-272H
How it was run: as §1

HCC-78 = test system: HCC-78
How it was run: as §1

HCC-827 = test system: HCC-827
How it was run: as §1

LCLC-103H = test system: LCLC-103H
How it was run: as §1

LK-2 = test system: LK-2
How it was run: as §1

LU99A = test system: LU99A
How it was run: as §1

NCI-H1563 = test system: NCI-H1563
How it was run: as §1

NCI-H1666 = test system: NCI-H1666
How it was run: as §1

NCI-H1975 = test system: NCI-H1975
How it was run: as §1

NCI-H2126 = test system: NCI-H2126
How it was run: as §1

NCI-H2342 = test system: NCI-H2342
How it was run: as §1

NCI-H23 = test system: NCI-H23
How it was run: as §1

NCI-H2405 = test system: NCI-H2405
How it was run: as §1

NCI-H322M = test system: NCI-H322M
How it was run: as §1

PC-14 = test system: PC-14
How it was run: as §1

RERF-LC-KJ = test system: RERF-LC-KJ
How it was run: as §1

SK-LU-1 = test system: SK-LU-1
How it was run: as §1

SW 1573 = test system: SW 1573
How it was run: as §1

SW 900 = test system: SW 900
How it was run: as §1

## COc1cc2nccc(Oc3ccc(NC(=O)Nc4cc(C)on4)c(Cl)c3)c2cc1OC [Tivozanib] + Cc1nc(Nc2ncc(C(=O)Nc3c(C)cccc3Cl)s2)cc(N2CCN(CCO)CC2)n1 [Dasatinib] (partner 0.075 µM)
ChaGo-K-1; first compound 0.005 µM
  relative viability: 0.543
ChaGo-K-1; first compound 0.01581 µM
  relative viability: 0.61
ChaGo-K-1; first compound 0.05 µM
  relative viability: 0.626
ChaGo-K-1; first compound 0.1581 µM
  relative viability: 0.602
ChaGo-K-1; first compound 0.5 µM
  relative viability: 0.581
EKVX; first compound 0.005 µM
  relative viability: 0.571
EKVX; first compound 0.01581 µM
  relative viability: 0.605
EKVX; first compound 0.05 µM
  relative viability: 0.483
EKVX; first compound 0.5 µM
  relative viability: 0.474
EMC-BAC-2; first compound 0.005 µM
  relative viability: 0.313
EMC-BAC-2; first compound 0.01581 µM
  relative viability: 0.314
EMC-BAC-2; first compound 0.05 µM
  relative viability: 0.313
EMC-BAC-2; first compound 0.1581 µM
  relative viability: 0.273
EMC-BAC-2; first compound 0.5 µM
  relative viability: 0.237
EPLC-272H; first compound 0.005 µM
  relative viability: 0.378
EPLC-272H; first compound 0.01581 µM
  relative viability: 0.375
EPLC-272H; first compound 0.05 µM
  relative viability: 0.447
EPLC-272H; first compound 0.1581 µM
  relative viability: 0.263
EPLC-272H; first compound 0.5 µM
  relative viability: 0.413
HCC-78; first compound 0.005 µM
  relative viability: 0.365
HCC-78; first compound 0.01581 µM
  relative viability: 0.387
HCC-78; first compound 0.05 µM
  relative viability: 0.466
HCC-78; first compound 0.1581 µM
  relative viability: 0.263
HCC-78; first compound 0.5 µM
  relative viability: 0.362
HCC-827; first compound 0.005 µM
  relative viability: 0.288
HCC-827; first compound 0.01581 µM
  relative viability: 0.36
HCC-827; first compound 0.05 µM
  relative viability: 0.317
HCC-827; first compound 0.1581 µM
  relative viability: 0.338
HCC-827; first compound 0.5 µM
  relative viability: 0.231
LCLC-103H; first compound 0.005 µM
  relative viability: 0.459
LCLC-103H; first compound 0.01581 µM
  relative viability: 0.524
LCLC-103H; first compound 0.05 µM
  relative viability: 0.513
LCLC-103H; first compound 0.1581 µM
  relative viability: 0.433
LCLC-103H; first compound 0.5 µM
  relative viability: 0.469
LK-2; first compound 0.005 µM
  relative viability: 0.226
LK-2; first compound 0.01581 µM
  relative viability: 0.29
LK-2; first compound 0.05 µM
  relative viability: 0.289
LK-2; first compound 0.1581 µM
  relative viability: 0.214
LK-2; first compound 0.5 µM
  relative viability: 0.23
LU99A; first compound 0.005 µM
  relative viability: 0.356
LU99A; first compound 0.01581 µM
  relative viability: 0.599
LU99A; first compound 0.05 µM
  relative viability: 0.656
LU99A; first compound 0.1581 µM
  relative viability: 0.489
LU99A; first compound 0.5 µM
  relative viability: 0.474
NCI-H1563; first compound 0.005 µM
  relative viability: 0.455
NCI-H1563; first compound 0.01581 µM
  relative viability: 0.463
NCI-H1563; first compound 0.05 µM
  relative viability: 0.466
NCI-H1563; first compound 0.1581 µM
  relative viability: 0.441
NCI-H1563; first compound 0.5 µM
  relative viability: 0.488
NCI-H1666; first compound 0.005 µM
  relative viability: 0.785
NCI-H1666; first compound 0.01581 µM
  relative viability: 0.831
NCI-H1666; first compound 0.05 µM
  relative viability: 0.801
NCI-H1666; first compound 0.1581 µM
  relative viability: 0.819
NCI-H1666; first compound 0.5 µM
  relative viability: 0.825
NCI-H1975; first compound 0.005 µM
  relative viability: 0.381
NCI-H1975; first compound 0.01581 µM
  relative viability: 0.367
NCI-H1975; first compound 0.05 µM
  relative viability: 0.417
NCI-H1975; first compound 0.1581 µM
  relative viability: 0.278
NCI-H1975; first compound 0.5 µM
  relative viability: 0.315
NCI-H2126; first compound 0.005 µM
  relative viability: 0.499
NCI-H2126; first compound 0.01581 µM
  relative viability: 0.567
NCI-H2126; first compound 0.05 µM
  relative viability: 0.636
NCI-H2126; first compound 0.1581 µM
  relative viability: 0.412
NCI-H2126; first compound 0.5 µM
  relative viability: 0.494
NCI-H2342; first compound 0.005 µM
  relative viability: 0.301
NCI-H2342; first compound 0.01581 µM
  relative viability: 0.333
NCI-H2342; first compound 0.05 µM
  relative viability: 0.326
NCI-H2342; first compound 0.5 µM
  relative viability: 0.33
NCI-H23; first compound 0.005 µM
  relative viability: 0.693
NCI-H23; first compound 0.01581 µM
  relative viability: 0.707
NCI-H23; first compound 0.05 µM
  relative viability: 0.769
NCI-H23; first compound 0.1581 µM
  relative viability: 0.389
NCI-H23; first compound 0.5 µM
  relative viability: 0.753
NCI-H2405; first compound 0.005 µM
  relative viability: 0.216
NCI-H2405; first compound 0.01581 µM
  relative viability: 0.242
NCI-H2405; first compound 0.05 µM
  relative viability: 0.202
NCI-H2405; first compound 0.1581 µM
  relative viability: 0.266
NCI-H2405; first compound 0.5 µM
  relative viability: 0.19
NCI-H322M; first compound 0.005 µM
  relative viability: 0.26
NCI-H322M; first compound 0.01581 µM
  relative viability: 0.241
NCI-H322M; first compound 0.05 µM
  relative viability: 0.272
NCI-H322M; first compound 0.1581 µM
  relative viability: 0.249
NCI-H322M; first compound 0.5 µM
  relative viability: 0.254
PC-14; first compound 0.005 µM
  relative viability: 0.224
PC-14; first compound 0.01581 µM
  relative viability: 0.25
PC-14; first compound 0.05 µM
  relative viability: 0.255
PC-14; first compound 0.1581 µM
  relative viability: 0.316
PC-14; first compound 0.5 µM
  relative viability: 0.239
RERF-LC-KJ; first compound 0.005 µM
  relative viability: 0.799
RERF-LC-KJ; first compound 0.01581 µM
  relative viability: 0.887
RERF-LC-KJ; first compound 0.05 µM
  relative viability: 0.788
RERF-LC-KJ; first compound 0.1581 µM
  relative viability: 0.856
RERF-LC-KJ; first compound 0.5 µM
  relative viability: 0.583
SK-LU-1; first compound 0.005 µM
  relative viability: 0.165
SK-LU-1; first compound 0.01581 µM
  relative viability: 0.173
SK-LU-1; first compound 0.05 µM
  relative viability: 0.162
SK-LU-1; first compound 0.1581 µM
  relative viability: 0.19
SK-LU-1; first compound 0.5 µM
  relative viability: 0.208
SW 1573; first compound 0.005 µM
  relative viability: 0.534
SW 1573; first compound 0.01581 µM
  relative viability: 0.566
SW 1573; first compound 0.05 µM
  relative viability: 0.46
SW 1573; first compound 0.1581 µM
  relative viability: 0.513
SW 1573; first compound 0.5 µM
  relative viability: 0.381
SW 900; first compound 0.005 µM
  relative viability: 0.566
SW 900; first compound 0.01581 µM
  relative viability: 0.53
SW 900; first compound 0.05 µM
  relative viability: 0.67
SW 900; first compound 0.1581 µM
  relative viability: 0.426
SW 900; first compound 0.5 µM
  relative viability: 0.45
